Laboratory results from paper PMC6537702, “Design, synthesis, molecular modelling, and biological evaluation of novel substituted pyrimidine derivatives as potential anticancer agents for hepatocellular carcinoma” (Journal of Enzyme Inhibition and Medicinal Chemistry, 2019).
In brackets after ≈: the same amount, converted by molar mass. Like-named read-outs stand apart in the source and are kept apart here.

Columns and labels:
[1] = tested on: HepG2 cell line; experiment: Resazurin cell growth inhibition assay, HepG2; type: cell-based, human; conditions: for IC50: Homo sapiens
Description: (§1) All compounds 2a-e, 3a-d, and PPAD’s 4a-t were subjected to a screening system for evaluation of their anticancer activity against cell line of human cancer, namely liver (HepG2 and Huh-7) cancer and normal fibroblast cells obtained from the German Cancer Research Center (DKFZ), following the Resazurin Cell Growth Inhibition Assay[45] in comparison to the standard treatment using DOX (see Supplementary).
(§2) Cell culture and treatment
(§3) All reagents were handled in a sterile fume hood. DMEM medium, and fetal bovine serum (FBS) were purchased from Gibco;phosphate-buffered saline pH 7.4 (PBS) and trypsin-EDTA were obtained from Sigmae Aldrich. Alamar Blue or Resazurin (Promega,Mannheim, Germany) reduction assay was used to assess the cytotoxicity of the studied samples. The growth medium (DMEMmedium with 10% FBS, 10 0 U/mL penicillin, and 10 0 mg/L streptomycin), and alamar blue were stored at 48 C, while trypsineEDTA and FBS were stored frozen at 208C and thawed before use; PBS was stored at room temperature. The Hep-G2, Huh-7 and normal fibroblast cells were obtained from the German Cancer Research Center (DKFZ).Cells were cultured in 50 cm2 culture flask s (Corning) using DMEM medium supplemented with 10% FBS, penicillin (10 0 IU/mL), and streptomycin ([…]). The culture was maintained at 37 C atmosphere of 5% CO2 and 95% relative humidity. The cells were transferred to a new fl ask every 2 days and treated with trypsineEDTA to detach them from the flask . Cells were counted under a microscope using a hemacytometer (Hausser Scientific).Cell solutions were diluted with growth medium to a concentration of 1 *10^5 cells/mL and transferred to a 96-well plate, and treated with gradient concentrations of test compounds.
(§4) Resazurin cell growth inhibition assay
(§5) Alamar Blue or Resazurin (Promega, Mannheim, Germany) reduction assay was used to assess the cytotoxicity of the studied samples. The assay tests cellular viability and mitochondrial function. Briefly y, adherent cells were grown in tissue culture flask s, and then harvested by treating the fl asks with 0.025% trypsin and0.25 mM EDTA for 5 min. Once detached, cells were washed, counted and an aliquot (5 * 103cells) was placed in each well of a96-well cell culture plate in a total volume of […]. Cells were allowed to attach overnight and then treated with samples. The final concentration of samples ranged from 0 to 10 0 mM. After 4 8 h,[…] Resazurin 0.01% w/v solution was added to each well and the plates were incubated at 37C for 1 -2 h. Fluorescence was measured on an automated 96-well Infinite M2000 ProTM plate reader (Tecan, Crailsheim, Germany) using an excit ation wave-length of 54 4 nm and an emission wavelength of 590 nm. Doxorubicin was used as positive control. Each assay was done at least three times, with two replicates each. The viability was compared based on a comparison with untreated cells. IC50(on cancer cells) were the concentration of sample required to inhibit 50% of the cell proliferation and were calculated from a calibration curve by a linear regression using Microsoft Excel

[2] = tested on: Huh-7 cell line; experiment: Resazurin cell growth inhibition assay, Huh-7; type: cell-based, human; conditions: for IC50: Homo sapiens
Description: as §1, §2, §3, §4, §5

[3] = Resazurin cell growth inhibition assay, normal fibroblast cells; type: cell-based; conditions: M ± SEM of three independent experiments, read-out: Cytotoxic activity IC50, Fibroblast
Description: as §1, §2, §3, §4, §5

[4] = HepG2, 48 h, resazurin assay, 48 h, M ± SEM of three independent experiments, read-out: Cytotoxic activity IC50, HepG2 cell line
[5] = Huh-7, 48 h, resazurin assay, 48 h, M ± SEM of three independent experiments, read-out: Cytotoxic activity IC50, Huh-7 cell line
[6] = HepG2, converted from μg/mL, read-out: IC50 against HepG2 cell line, equivalent in μM
[7] = resazurin assay, 48 h, M ± SEM of three independent experiments

Structure (SMILES)	IC50 [1, 4] [µg/mL]	IC50 [2, 5] [µg/mL]	IC50 at 48 h [3] [µg/mL]	melting point [°C]	IC50 [1, 6] [µM]	Cytotoxic activity IC50, HepG2 cell line [1, 7] [µg/mL]	IC50 ([2]; Huh-7, converted from μg/mL, read-out: IC50 against Huh-7 cell line, equivalent in μM) [µM]	Cytotoxic activity IC50, Huh-7 cell line [2, 7] [µg/mL]
N#Cc1c(-c2ccccc2)nc(NN)[nH]c1=O [Compound 2a]	20.8 ± 1.6	21.7 ± 1.18	40 ± 1.24 (≈ 176 µM)					
N#Cc1c(-c2ccc(F)cc2)nc(NN)[nH]c1=O [Compound 2b]	22.2 ± 2.2	21.6 ± 2.19	40.6 ± 2.45 (≈ 165 µM)					
N#Cc1c(-c2c[nH]c3ccccc23)nc(NN)[nH]c1=O [Compound 2c]	20.2 ± 1.88	21.3 ± 2.37	40.2 ± 2.13 (≈ 151 µM)					
COc1cc(-c2nc(NN)[nH]c(=O)c2C#N)cc(OC)c1OC [Compound 2d]	20.6 ± 2.14	21.8 ± 3.18	40.1 ± 1.37 (≈ 126 µM)					
CN(C)c1ccc(-c2nc(NN)[nH]c(=O)c2C#N)cc1 [Compound 2e, 4-[4-(Dimethylamino)phenyl]-2-hydrazino-6-oxo-1,6-dihydropyrimidine-5-carbonitrile]	20.1 ± 3	21 ± 4.12	40.4 ± 1.89 (≈ 150 µM)	214 to 216				
O=C(/C=C/c1ccc(F)cc1)c1c2ccccc2cc2ccccc12 [Compound 3a]	22.2 ± 2.45	21.8 ± 1.24	40.6 ± 2.48 (≈ 124 µM)					
CN(C)c1ccc(/C=C/C(=O)c2c3ccccc3cc3ccccc23)cc1 [Compound 3b]	21.4 ± 2.76	21 ± 1.12	40.7 ± 2.34 (≈ 116 µM)					
COc1cc(/C=C/C(=O)c2c3ccccc3cc3ccccc23)cc(OC)c1OC [Compound 3c]	21.5 ± 2.54	21.5 ± 4.13	40.8 ± 4.51 (≈ 102 µM)					
O=C(/C=C/c1c[nH]c2ccccc12)c1c2ccccc2cc2ccccc12 [Compound 3d, (2E)-1–(9-anthryl)-3-(1H-indol-3-yl)prop-2-en-1-one]	22.5 ± 2.8	22.6 ± 3.3	40.8 ± 4.72 (≈ 117 µM)	170 to 172				
N#Cc1c(-c2ccccc2)nc(N2N=C(c3c4ccccc4cc4ccccc34)CC2c2ccc(F)cc2)[nH]c1=O (stereo not shown) [Compound 4a, 2-[3-Anthracene-9-yl-5–(4-fluoro-phenyl)-4,5-dihydro-pyrazol-1-yl]-6-oxo-4-phenyl-1,6-dihydro-pyrimidine-5-carbonitrile]	11.3 ± 2.11	16.8 ± 3.45	32.3 ± 5.22 (≈ 60.3 µM)	150 to 151				
CN(C)c1ccc(C2CC(c3c4ccccc4cc4ccccc34)=NN2c2nc(-c3ccccc3)c(C#N)c(=O)[nH]2)cc1 (stereo not shown) [Compound 4b, 2-[3-Anthracene-9-yl-5–(4-dimethylamino-phenyl)-4,5-dihydro-pyrazol-1-yl]-6-oxo-4-phenyl-1,6-dihydro-pyrimidine-5-carbonitrile]	15.3 ± 4.21	10.9 ± 2.14	33 ± 6.51 (≈ 58.9 µM)	120 to 122				
COc1cc(C2CC(c3c4ccccc4cc4ccccc34)=NN2c2nc(-c3ccccc3)c(C#N)c(=O)[nH]2)cc(OC)c1OC (stereo not shown) [Compound 4c, 2-[3-Anthracene-9-yl-5–(3,4,5-trimethoxy-phenyl)-4,5-dihydro-pyrazol-1-yl]-6-oxo-4-phenyl-1,6-dihydro-pyrimidine-5-carbonitrile]	15.3 ± 4.22	11.3 ± 1.09	29.3 ± 3.51 (≈ 48.2 µM)	110 to 112				
N#Cc1c(-c2ccccc2)nc(N2N=C(c3c4ccccc4cc4ccccc34)CC2c2c[nH]c3ccccc23)[nH]c1=O (stereo not shown) [Compound 4d, 2-[3-Anthracene-9-yl-5-(1H-indol-3-yl)-4,5-dihydro-pyrazol-1-yl]-6-oxo-4-phenyl-1,6-dihydro-pyrimidine-5-carbonitrile]	17.2 ± 4.04	8.42 ± 1.04	21.5 ± 4.07 (≈ 38.6 µM)	135 to 137				
CN(C)c1ccc(C2CC(c3c4ccccc4cc4ccccc34)=NN2c2nc(-c3ccc(F)cc3)c(C#N)c(=O)[nH]2)cc1 (stereo not shown) [Compound 4f, 2-[3-Anthracene-9-yl-5–(4-dimethylamino-phenyl)-4,5-dihydro-pyrazol-1-yl]-4–(4-fluoro-phenyl)-6-oxo-1,6-dihydro-pyrimidine-5-carbonitrile]	4.2	8.45 ± 0.75	33.1 ± 6.52 (≈ 57.3 µM)		7.2	4.22 ± 0.94		
COc1cc(C2CC(c3c4ccccc4cc4ccccc34)=NN2c2nc(-c3ccc(F)cc3)c(C#N)c(=O)[nH]2)cc(OC)c1OC (stereo not shown) [Compound 4g, 2-[3-Anthracene-9-yl-5–(3,4,5-trimethoxy-phenyl)-4,5-dihydro-pyrazol-1-yl]-4–(4-fluoro-phenyl)-6-oxo-1,6-dihydro-pyrimidine-5-carbonitrile]	7.22 ± 1.85	4.78 ± 0.24	25.3 ± 4.87 (≈ 40.5 µM)				7.6	
N#Cc1c(-c2ccc(F)cc2)nc(N2N=C(c3c4ccccc4cc4ccccc34)CC2c2c[nH]c3ccccc23)[nH]c1=O (stereo not shown) [Compound 4h, 2-[3-Anthracene-9-yl-5-(1H-indol-3-yl)-4,5-dihydro-pyrazol-1-yl]-4–(4-fluoro-phenyl)-6-oxo-1,6-dihydro-pyrimidine-5-carbonitrile]	7.45 ± 1.11	9.77 ± 1.48	23.5 ± 4.21 (≈ 40.9 µM)	143 to 145				
CN(C)c1ccc(C2CC(c3c4ccccc4cc4ccccc34)=NN2c2nc(-c3c[nH]c4ccccc34)c(C#N)c(=O)[nH]2)cc1 (stereo not shown) [Compound 4j, 2-[3-Anthracene-9-yl-5–(4-dimethylamino-phenyl)-4,5-dihydro-pyrazol-1-yl]-4-(1H-indol-3-yl)-6-oxo-1,6-dihydro-pyrimidine-5-carbonitrile]	12.2 ± 2.53	13.2 ± 3.05	34.1 ± 5.17 (≈ 56.9 µM)	240 to 242				
COc1cc(C2CC(c3c4ccccc4cc4ccccc34)=NN2c2nc(-c3c[nH]c4ccccc34)c(C#N)c(=O)[nH]2)cc(OC)c1OC (stereo not shown) [Compound 4k, 2-[3-Anthracene-9-yl-5–(3,4,5-trimethoxy-phenyl)-4,5-dihydro-pyrazol-1-yl]-4-(1H-indol-3-yl)-6-oxo-1,6-dihydro-pyrimidine-5-carbonitrile]	14.1 ± 3.01	13.5 ± 2.32	27 ± 4.12 (≈ 41.8 µM)	228 to 230				
N#Cc1c(-c2c[nH]c3ccccc23)nc(N2N=C(c3c4ccccc4cc4ccccc34)CC2c2c[nH]c3ccccc23)[nH]c1=O (stereo not shown) [Compound 4l, 2-[3-Anthracene-9-yl-5-(1H-indol-3-yl)-4,5-dihydro-pyrazol-1-yl]-4-(1H-indol-3-yl)-6-oxo–1,6-dihydro-pyrimidine-5-carbonitrile]	14.6 ± 2.12	12.4 ± 1.75	20.2 ± 3.18 (≈ 34 µM)	220 to 222				
COc1cc(-c2nc(N3N=C(c4c5ccccc5cc5ccccc45)CC3c3ccc(N(C)C)cc3)[nH]c(=O)c2C#N)cc(OC)c1OC (stereo not shown) [Compound 4n, 2-[3-Anthracene-9-yl-5–(4-dimethylamino-phenyl)-4,5-dihydro-pyrazol-1-yl]-6-oxo-4–(3,4,5-trimethoxy-phenyl)-1,6-dihydro-pyrimidine-5-carbonitrile]	9.66 ± 1.31	9.54 ± 2.16	18.6 ± 3.17 (≈ 28.5 µM)	170 to 172				
COc1cc(-c2nc(N3N=C(c4c5ccccc5cc5ccccc45)CC3c3c[nH]c4ccccc34)[nH]c(=O)c2C#N)cc(OC)c1OC (stereo not shown) [Compound 4p, 2-[3-Anthracene-9-yl-5-(1H-indol-3-yl)-4,5-dihydro-pyrazol-1-yl]-6-oxo-4–(3,4,5-trimethoxy-phenyl)-1,6-dihydro-pyrimidine-5-carbonitrile]	11.2 ± 1.2	8.14 ± 1.65	18.2 ± 4.02 (≈ 28.2 µM)					
COc1cccc2c1C(=O)c1c(O)c3c(c(O)c1C2=O)C[C@@](O)(C(=O)CO)C[C@@H]3O[C@H]1C[C@H](N)[C@H](O)[C@H](C)O1 [Doxorubicin, reference compound]	5.43 ± 0.24	5.43	24.1 ± 3.53 (≈ 44.4 µM)		10.1			6.40 ± 0.43
